Reference: ChEMBL document CHEMBL1201862, “PubChem BioAssay data set” (2004)
Activity calls are given as the source filed them.

What was measured:
[1] = target: Lysine-specific demethylase 4C (Homo sapiens, UniProt Q9H3R0); assay: GASC-1 (JMJD2C) histone demethylase inhibitors, dose response, biochemical, DELFIA europium, cherry-picked samples (AID 488835); format: functional
[2] = target: T1, Nucleotide-binding oligomerization domain-containing protein 1 (Homo sapiens, UniProt Q9Y239); assay: SAR analysis of NF-kappaB dependent luciferase using DAP as an inducer - Set 2. [Related pubchem assays (depositor defined):AID1566, AID1575, AID1578, AID1579, AID1849, AID1852, AID2264]; format: functional
T1 sequence (Q9Y239 whole entry): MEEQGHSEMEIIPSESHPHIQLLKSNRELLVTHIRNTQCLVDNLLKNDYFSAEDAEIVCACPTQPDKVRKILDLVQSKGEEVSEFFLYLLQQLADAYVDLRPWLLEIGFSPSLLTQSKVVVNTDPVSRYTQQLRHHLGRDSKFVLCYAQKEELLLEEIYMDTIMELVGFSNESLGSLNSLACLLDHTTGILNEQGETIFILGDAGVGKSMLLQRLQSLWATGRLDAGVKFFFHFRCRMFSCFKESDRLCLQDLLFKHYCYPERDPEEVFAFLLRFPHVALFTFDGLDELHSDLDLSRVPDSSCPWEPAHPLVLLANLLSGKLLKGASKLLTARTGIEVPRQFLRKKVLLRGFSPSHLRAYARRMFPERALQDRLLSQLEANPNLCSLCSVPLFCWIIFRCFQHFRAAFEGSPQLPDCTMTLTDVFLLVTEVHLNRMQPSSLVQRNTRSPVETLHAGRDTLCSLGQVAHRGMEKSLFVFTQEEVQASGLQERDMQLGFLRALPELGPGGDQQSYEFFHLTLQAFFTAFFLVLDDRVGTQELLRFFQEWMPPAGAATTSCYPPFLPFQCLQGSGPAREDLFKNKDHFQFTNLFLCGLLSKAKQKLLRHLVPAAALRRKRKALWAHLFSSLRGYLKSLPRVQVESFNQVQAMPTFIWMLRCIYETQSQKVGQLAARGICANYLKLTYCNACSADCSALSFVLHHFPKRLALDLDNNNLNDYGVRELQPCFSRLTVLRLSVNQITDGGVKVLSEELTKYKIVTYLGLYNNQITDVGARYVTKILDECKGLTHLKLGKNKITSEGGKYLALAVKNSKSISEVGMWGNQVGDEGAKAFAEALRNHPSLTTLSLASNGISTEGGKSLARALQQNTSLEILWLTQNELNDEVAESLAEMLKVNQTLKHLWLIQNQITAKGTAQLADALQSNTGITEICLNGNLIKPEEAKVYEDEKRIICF

Interleukin-8 [3] = target: T2, Interleukin-8 (Homo sapiens, UniProt P10145); assay: SAR analysis of Tumor necrosis factor alpha (TNF-alpha) induced IL-8 secretion in MCF-7/NOD1 cells - Set 2. [Related pubchem assays (depositor defined):AID1575, AID2250, AID2260]; format: functional, cell-based
T2 sequence (P10145 whole entry): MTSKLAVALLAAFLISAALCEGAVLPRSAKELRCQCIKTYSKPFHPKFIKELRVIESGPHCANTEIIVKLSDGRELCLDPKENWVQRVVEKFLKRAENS

Interleukin-8 [4] = target: T2, Interleukin-8; assay: SAR analysis of GM-Tri-DAP induced IL-8 secretion in MCF-7/NOD1 cells - Set 2. [Related pubchem assays (depositor defined):AID1575, AID1578, AID2333]; format: functional, cell-based
[5] = target: T3, Nucleotide-binding oligomerization domain-containing protein 2 (Homo sapiens, UniProt Q9HC29); assay: NOD2 inhibitors, SAR follow-up, set 2 (AID 2475); format: functional
HEK293 [6] = assay: SAR analysis of compounds that are cytotoxic to HEK293 - Set 2. [Related pubchem assays (depositor defined):AID1575, AID1578, AID1849, AID2001, AID2333, AID2334, AID2335, AID2337, AID2800]; format: functional, cell-based; details: Homo sapiens
[7] = target: T1, Nucleotide-binding oligomerization domain-containing protein 1; assay: SAR analysis of compounds that inhibit NOD1 - Set 2. [Related pubchem assays (depositor defined):AID1566, AID1575, AID1578, AID1849, AID1852, AID2333, AID2335, AID2798]; format: functional
[8] = target: T1, Nucleotide-binding oligomerization domain-containing protein 1; assay: SAR analysis of compounds that inhibit NOD1 - Set 3. [Related pubchem assays (depositor defined):AID1566, AID1575, AID1578, AID1849, AID1852, AID2333, AID2335, AID2466]; format: functional
Tumor necrosis factor = Tumor necrosis factor (Homo sapiens, UniProt P01375); assay: TNFa-triggered NF-kB activation inhibitors, SAR follow-up, cell-based, set 3 (AID 2801); format: functional
HEK293 [9] = assay: SAR analysis of compounds that are cytotoxic to HEK293 - Set 3. [Related pubchem assays (depositor defined):AID1575, AID1578, AID1848, AID1849, AID2001, AID2333, AID2334, AID2335, AID2337, AID2469]; format: functional, cell-based; details: Homo sapiens
[10] = target: T3, Nucleotide-binding oligomerization domain-containing protein 2; assay: NOD2 signaling inhibitors, analog potency, SAR follow-up, cell-based, set 3 (AID 2799); format: functional
Galanin receptor type 2 = Galanin receptor type 2 (Homo sapiens, UniProt O43603); assay: Dose Response cell-based high-throughput screening assay to identify antagonists of galanin receptor 2 (GALR2). [Related pubchem assays: 828, 866 ]; format: functional
Jurkat = assay: antigen receptor-induced NF-kB inhibitors, dose response, Jurkat, luciferase reporter, luminescence, B- and T-cell (AID 489004); format: functional, cell-based; details: Homo sapiens;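 also: NF-kB luciferase reporter Jurkat cells stimulated with PMA plus ionomycin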
[11] = cytotoxicity in HEK-293T NF-kB-Luc cells, dose response, cytotoxicity control for B/T-cell NF-kB inhibitor project, cell-based, uHTS hits (AID 489019); format: functional;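 also: IC50 reflects cytotoxicity as loss of cell viability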
INS1 = assay: beta cell apoptosis inhibitors, cytokine rescue, dose response, luminescence, retest (AID 449756); format: functional, cell-based; details: Rattus norvegicus;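 also: cell death triggered by IL-1 beta plus TNF-alpha plus IFN-gamma mixture; protective hits raise ATP signal compared with cytokine alone wells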
Galanin receptor type 3 = Galanin receptor type 3 (Homo sapiens, UniProt O60755); assay: Fluorescence-based cell-based primary high throughput dose response assay to identify antagonists of the Galanin Receptor 3 (GalR3).; format: functional
cells = format: functional, cell-based; details: HEK-CNG
Escherichia coli = assay: microbe, parasite or virus in culture
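For EC50 in this document: target is galanin receptor GalR3 read with a cAMP biosensor in HEK293 cells.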

T3 sequence (Q9HC29 whole entry, the tested form may be a part): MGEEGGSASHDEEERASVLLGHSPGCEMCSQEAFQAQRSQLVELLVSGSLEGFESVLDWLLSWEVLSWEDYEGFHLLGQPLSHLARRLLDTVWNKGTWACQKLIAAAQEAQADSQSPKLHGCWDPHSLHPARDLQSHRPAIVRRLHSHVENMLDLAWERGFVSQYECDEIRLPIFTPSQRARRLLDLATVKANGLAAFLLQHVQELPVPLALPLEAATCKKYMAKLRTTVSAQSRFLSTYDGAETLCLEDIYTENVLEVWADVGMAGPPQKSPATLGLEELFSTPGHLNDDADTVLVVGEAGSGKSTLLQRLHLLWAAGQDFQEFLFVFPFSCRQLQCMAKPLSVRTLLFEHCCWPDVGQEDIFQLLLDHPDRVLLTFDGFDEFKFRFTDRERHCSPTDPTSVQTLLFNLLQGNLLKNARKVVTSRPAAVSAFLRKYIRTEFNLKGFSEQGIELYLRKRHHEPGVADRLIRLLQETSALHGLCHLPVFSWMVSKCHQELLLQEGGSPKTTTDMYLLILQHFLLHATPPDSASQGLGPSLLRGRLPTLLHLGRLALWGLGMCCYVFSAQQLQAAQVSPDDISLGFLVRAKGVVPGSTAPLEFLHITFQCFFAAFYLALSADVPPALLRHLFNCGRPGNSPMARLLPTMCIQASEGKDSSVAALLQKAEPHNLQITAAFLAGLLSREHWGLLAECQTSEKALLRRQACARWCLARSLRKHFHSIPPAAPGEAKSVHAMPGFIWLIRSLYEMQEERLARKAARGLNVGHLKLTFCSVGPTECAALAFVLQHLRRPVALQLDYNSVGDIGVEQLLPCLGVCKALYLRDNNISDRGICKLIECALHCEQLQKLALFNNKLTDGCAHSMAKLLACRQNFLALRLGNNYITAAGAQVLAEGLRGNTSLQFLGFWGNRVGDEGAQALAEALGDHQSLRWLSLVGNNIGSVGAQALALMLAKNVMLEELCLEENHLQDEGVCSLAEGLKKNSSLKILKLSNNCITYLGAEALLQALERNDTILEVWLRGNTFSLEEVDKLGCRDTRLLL
Chain of Galanin receptor type 3 (O60755 whole entry): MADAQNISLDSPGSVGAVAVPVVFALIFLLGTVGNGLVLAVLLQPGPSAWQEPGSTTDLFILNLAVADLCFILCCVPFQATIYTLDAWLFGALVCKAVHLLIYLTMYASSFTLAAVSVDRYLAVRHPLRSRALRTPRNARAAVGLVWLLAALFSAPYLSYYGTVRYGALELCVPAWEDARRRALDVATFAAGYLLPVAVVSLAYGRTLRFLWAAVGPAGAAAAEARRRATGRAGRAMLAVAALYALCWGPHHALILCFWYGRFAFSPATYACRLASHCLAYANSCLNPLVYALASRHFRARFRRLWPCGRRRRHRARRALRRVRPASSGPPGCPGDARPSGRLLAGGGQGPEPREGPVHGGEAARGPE
Chain of Lysine-specific demethylase 4C (Q9H3R0 whole entry, the tested form may be a part): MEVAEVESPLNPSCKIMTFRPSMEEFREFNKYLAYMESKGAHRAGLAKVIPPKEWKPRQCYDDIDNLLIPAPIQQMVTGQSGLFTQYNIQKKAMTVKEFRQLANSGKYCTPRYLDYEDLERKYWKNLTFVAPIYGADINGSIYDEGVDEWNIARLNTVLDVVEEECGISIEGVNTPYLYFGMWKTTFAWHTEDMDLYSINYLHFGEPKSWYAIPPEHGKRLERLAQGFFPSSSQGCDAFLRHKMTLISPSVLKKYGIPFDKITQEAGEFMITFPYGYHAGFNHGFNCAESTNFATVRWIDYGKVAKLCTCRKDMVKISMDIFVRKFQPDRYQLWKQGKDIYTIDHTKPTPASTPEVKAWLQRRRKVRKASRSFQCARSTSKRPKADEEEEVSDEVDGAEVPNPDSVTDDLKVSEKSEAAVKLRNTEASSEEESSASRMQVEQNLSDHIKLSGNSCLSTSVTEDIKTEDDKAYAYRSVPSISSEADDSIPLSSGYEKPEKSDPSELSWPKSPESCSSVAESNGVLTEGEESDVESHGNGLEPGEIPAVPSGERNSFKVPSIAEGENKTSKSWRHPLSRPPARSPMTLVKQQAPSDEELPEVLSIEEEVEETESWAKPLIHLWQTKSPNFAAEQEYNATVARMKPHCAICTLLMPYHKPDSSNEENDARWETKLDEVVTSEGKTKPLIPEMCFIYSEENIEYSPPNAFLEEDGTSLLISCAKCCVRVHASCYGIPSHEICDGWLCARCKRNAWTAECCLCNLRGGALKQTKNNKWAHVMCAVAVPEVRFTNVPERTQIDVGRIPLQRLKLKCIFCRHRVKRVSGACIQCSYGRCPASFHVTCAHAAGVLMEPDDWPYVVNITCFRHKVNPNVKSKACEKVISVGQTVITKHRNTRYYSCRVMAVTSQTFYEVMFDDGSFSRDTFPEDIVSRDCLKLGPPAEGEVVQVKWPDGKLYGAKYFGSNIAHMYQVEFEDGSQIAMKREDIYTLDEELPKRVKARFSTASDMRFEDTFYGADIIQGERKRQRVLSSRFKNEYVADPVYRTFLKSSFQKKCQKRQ
Chain of Galanin receptor type 2 (O43603 whole entry): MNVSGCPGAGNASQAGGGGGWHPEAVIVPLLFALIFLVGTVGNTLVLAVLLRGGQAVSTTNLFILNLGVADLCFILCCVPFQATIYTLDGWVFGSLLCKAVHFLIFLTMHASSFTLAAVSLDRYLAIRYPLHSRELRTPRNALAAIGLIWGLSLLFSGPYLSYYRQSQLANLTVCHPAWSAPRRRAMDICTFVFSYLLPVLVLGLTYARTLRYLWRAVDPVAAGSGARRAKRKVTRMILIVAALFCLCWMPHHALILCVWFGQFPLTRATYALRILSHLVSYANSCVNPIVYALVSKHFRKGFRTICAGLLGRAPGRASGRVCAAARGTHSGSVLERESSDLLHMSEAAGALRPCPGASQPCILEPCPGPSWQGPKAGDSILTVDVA
Chain of Tumor necrosis factor (P01375 whole entry): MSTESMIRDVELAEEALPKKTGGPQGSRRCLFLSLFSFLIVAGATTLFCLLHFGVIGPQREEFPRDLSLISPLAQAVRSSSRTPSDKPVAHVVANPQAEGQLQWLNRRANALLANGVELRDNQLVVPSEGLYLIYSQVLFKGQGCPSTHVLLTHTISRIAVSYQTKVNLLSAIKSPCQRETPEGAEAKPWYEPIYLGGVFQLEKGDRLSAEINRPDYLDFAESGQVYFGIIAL

Nc1c(O)nc(O)nc1C(=O)OCC(=O)Nc1ccc(Cl)cc1[N+](=O)[O-]
active: AC50 [1] 8.98 µM

COCCn1c(SCCCc2ccccc2)nc2c1c(=O)[nH]c(=O)n2C
inactive: IC50 [2] > 25 µM | IC50 (Interleukin-8 [3]) > 25 µM | IC50 (Interleukin-8 [4]) > 25 µM | IC50 [5] > 20 µM | IC50 (HEK293 [6]) > 20 µM | IC50 [7] > 20 µM | IC50 [8] > 20 µM | IC50 (Tumor necrosis factor) > 20 µM | IC50 (HEK293 [9]) > 20 µM | IC50 [10] > 20 µM

Cn1nc(C(C)(C)C)cc1C(=O)NCc1ccc(N2CCCC2=O)cc1
> 42 µM (not active): IC50 (Galanin receptor type 2)
inactive: IC50 (Jurkat) > 80 µM | IC50 [11] > 80 µM | EC50 (cells) > 29.9 µM
active: AC50 (INS1) 2.85 µM | IC50 (Galanin receptor type 3) 1.13 µM

CC(=O)N1Cc2cc([N+](=O)[O-])ccc2Oc2ccccc21
active: AC50 (Escherichia coli) 28.5 µM
